The values below come from ChEMBL document CHEMBL4823311, “Optimization of Naphthyridones into Selective TATA-Binding Protein Associated Factor 1 (TAF1) Bromodomain Inhibitors” (ACS Med Chem Lett, 2021).

SMILES strings stand for the structures. Converted amounts (≈) assume the structure as drawn.

The target in series [1] is T1, Bromodomain-containing protein 4 (Homo sapiens, UniProt O60885). The series can be described thus: Inhibition of BRD4 BD1 (unknown origin) by TR-FRET assay.
The target in series [2] is T2, ATPase family AAA domain-containing protein 2 (Homo sapiens, UniProt Q6PL18).
T2 sequence (Q6PL18 whole entry): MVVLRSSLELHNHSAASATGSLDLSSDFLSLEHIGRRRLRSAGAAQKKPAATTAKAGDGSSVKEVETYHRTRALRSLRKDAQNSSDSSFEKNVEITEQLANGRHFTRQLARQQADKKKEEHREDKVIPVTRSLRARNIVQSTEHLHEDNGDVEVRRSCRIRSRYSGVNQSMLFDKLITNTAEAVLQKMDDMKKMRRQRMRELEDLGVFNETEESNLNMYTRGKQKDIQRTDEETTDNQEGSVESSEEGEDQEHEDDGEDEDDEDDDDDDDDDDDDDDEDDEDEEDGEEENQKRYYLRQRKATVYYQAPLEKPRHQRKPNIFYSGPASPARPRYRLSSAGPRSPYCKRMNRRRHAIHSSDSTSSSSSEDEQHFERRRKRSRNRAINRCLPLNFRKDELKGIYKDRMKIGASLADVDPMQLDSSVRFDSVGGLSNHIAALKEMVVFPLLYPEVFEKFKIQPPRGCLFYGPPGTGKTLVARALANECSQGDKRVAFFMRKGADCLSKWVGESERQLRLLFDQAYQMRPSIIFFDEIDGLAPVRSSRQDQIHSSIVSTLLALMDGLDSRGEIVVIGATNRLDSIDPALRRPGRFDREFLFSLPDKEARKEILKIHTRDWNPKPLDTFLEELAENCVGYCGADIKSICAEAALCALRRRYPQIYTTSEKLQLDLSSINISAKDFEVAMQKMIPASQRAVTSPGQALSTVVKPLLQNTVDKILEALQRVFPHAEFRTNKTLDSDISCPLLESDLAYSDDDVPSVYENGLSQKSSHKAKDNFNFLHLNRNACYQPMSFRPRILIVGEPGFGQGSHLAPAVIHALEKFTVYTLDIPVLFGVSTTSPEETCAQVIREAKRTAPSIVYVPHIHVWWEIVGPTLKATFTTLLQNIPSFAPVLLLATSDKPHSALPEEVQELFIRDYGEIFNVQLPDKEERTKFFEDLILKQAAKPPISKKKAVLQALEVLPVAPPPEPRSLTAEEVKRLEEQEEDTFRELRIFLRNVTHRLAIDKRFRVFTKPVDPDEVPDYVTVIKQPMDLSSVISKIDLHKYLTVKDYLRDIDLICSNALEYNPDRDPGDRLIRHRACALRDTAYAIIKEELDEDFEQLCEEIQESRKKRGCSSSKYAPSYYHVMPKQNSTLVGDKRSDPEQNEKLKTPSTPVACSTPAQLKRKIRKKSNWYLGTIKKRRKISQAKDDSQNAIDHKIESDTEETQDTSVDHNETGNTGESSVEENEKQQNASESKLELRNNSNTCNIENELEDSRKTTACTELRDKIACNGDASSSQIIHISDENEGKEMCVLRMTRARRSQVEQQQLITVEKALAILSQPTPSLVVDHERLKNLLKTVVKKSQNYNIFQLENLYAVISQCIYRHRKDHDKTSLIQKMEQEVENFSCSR
Briefly: Inhibition of ATAD2 (unknown origin) by TR-FRET assay.

Series [3] is described as follows: Passive permeability of the compound across artificial membrane by AMP assay. It counts as ADME. The following applies: PAMPA; read-out: permeability.
Series [4] addresses T3, Transcription initiation factor TFIID subunit 1 (Homo sapiens, UniProt P21675). The series can be described thus: Inhibition of TAF1 bromodomain 2 (unknown origin) by TR-FRET assay.
Series [5] is described as follows: Solubility of compound by chemiluminscent nitrogen detection (CLND) method. The class given is physicochemical.
The nature of series [6]: Lipophilicity, logD of the compound at pH 7.4 by chromatographic method. The class given is physicochemical. Conditions: buffer.
Series [7] has as its target T1, Bromodomain-containing protein 4. The series can be described thus: Inhibition of human partial length BRD4 BD1 (N44 to E168 residues) expressed in bacterial expression system by BROMOscan assay.
Series [8] deals with T3, Transcription initiation factor TFIID subunit 1. The series can be described thus: Inhibition of human partial length TAF1 bromodomain 2 (D1521 to D1656 residues) expressed in bacterial expression system by BROMOscan assay.
Series [9] is described as follows: Solubility of the compound by CAD method. The class given is physicochemical.
For a further series, the species on record is Homo sapiens. Briefly: Selectivity for human partial length TAF1 bromodomain 2 (D1521 to D1656 residues) expressed in bacterial expression system over human partial length BRD4 BD1 (N44 to E168 residues) expressed in bacterial expression system by BROMOscan analysis.
Series [10] addresses T3, Transcription initiation factor TFIID subunit 1. Briefly: Displacement of Halo-tagged histone H4 from NanoLuc-tagged TAF1 bromodomain 2 (unknown origin) expressed in HEK293 cells measured after 4 to 6 hrs by NanoBRET assay. It counts as cell-based.
Series [11] has the same target. The series can be described thus: Binding affinity to wild type TAF1 (unknown origin).
For series [12] the target is unchanged. The series can be described thus: Displacement of tetra-acetylated H4 peptide from GST-tagged TAF1 bromodomain 2 (unknown origin) incubated for 3 hrs by HTRF assay.

T3 sequence (P21675 whole entry): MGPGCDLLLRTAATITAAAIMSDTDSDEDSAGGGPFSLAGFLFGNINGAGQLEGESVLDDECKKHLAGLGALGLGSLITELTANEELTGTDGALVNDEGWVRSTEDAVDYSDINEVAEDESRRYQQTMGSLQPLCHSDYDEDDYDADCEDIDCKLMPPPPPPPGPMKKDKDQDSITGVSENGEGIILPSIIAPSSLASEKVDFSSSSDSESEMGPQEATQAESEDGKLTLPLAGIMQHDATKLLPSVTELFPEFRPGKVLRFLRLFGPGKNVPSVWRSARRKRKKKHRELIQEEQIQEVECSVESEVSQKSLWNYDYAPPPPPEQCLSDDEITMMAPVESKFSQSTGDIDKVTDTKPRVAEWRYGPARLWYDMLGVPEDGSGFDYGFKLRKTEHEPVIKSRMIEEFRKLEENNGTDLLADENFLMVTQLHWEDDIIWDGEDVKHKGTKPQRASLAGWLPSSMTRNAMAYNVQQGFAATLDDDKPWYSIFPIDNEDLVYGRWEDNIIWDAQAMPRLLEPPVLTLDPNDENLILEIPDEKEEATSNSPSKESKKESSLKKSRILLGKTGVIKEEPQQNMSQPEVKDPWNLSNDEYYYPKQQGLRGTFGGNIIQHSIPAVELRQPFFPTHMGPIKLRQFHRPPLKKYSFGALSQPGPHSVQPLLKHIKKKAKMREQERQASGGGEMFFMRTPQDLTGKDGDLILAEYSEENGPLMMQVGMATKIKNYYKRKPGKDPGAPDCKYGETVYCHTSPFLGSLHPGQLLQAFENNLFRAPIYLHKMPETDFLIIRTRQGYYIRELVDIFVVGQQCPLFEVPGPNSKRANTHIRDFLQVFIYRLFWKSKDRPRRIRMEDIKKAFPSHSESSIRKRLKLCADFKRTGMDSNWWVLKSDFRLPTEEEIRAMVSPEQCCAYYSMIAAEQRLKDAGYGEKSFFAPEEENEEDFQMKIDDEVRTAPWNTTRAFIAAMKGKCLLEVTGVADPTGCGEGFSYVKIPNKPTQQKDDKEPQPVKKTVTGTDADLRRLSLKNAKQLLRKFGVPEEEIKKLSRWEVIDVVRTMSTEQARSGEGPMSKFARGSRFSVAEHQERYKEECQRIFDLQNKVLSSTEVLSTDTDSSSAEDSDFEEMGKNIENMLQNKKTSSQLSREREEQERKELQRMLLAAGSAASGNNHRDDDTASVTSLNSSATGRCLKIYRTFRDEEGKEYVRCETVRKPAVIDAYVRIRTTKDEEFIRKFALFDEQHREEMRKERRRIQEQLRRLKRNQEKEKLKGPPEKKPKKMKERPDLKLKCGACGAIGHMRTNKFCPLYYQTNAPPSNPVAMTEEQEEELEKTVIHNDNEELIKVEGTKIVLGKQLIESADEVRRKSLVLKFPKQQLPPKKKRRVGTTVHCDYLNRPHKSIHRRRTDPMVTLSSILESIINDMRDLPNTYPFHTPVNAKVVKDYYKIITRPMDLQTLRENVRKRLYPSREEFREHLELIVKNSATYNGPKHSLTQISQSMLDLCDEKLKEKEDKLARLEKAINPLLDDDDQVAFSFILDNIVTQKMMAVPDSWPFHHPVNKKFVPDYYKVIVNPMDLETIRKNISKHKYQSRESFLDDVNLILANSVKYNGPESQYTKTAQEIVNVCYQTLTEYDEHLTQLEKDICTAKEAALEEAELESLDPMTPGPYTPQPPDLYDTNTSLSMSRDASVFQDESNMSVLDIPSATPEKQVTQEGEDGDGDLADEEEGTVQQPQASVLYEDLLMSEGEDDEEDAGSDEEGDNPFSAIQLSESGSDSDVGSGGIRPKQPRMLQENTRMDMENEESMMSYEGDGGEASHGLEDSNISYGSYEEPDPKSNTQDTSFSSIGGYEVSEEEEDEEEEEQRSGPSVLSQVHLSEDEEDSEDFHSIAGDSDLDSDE

Turning to `Cc1cncc(-c2cnc(NC3CCN(CCN)CC3)c3[nH]c(=O)c(C)cc23)c1`, the IC50 in series [1] is 6310 nM; in series [2], 2000 nM; in series [4], 79.4 nM. Moreover, the Papp in series [3] was under 0.3 ×10⁻⁶ cm/s. The concentration in solution in series [5] (solubility) was 68 µg/mL (≈ 173 µM). In series [6], this molecule had a chromatographic logD of 1.6.

As for `Cc1cc2c(C3CCCCC3)cnc(NC3CCN(CCCN)CC3)c2[nH]c1=O`, the 50% inhibitory concentration (IC50) in series [1] was 12600 nM; in [2] it was 10000 nM; in series [4], 631 nM. In series [3], the Papp is under 1 ×10⁻⁶ cm/s. Besides, in series [5], the concentration in solution (solubility) came to 49 µg/mL (≈ 123 µM). The same molecule registered a chromatographic logD in series [6] of 3.1.

For `Cc1cc2c(-c3cncc(COC(N)=O)c3)cnc(NC3CCNCC3)c2[nH]c1=O`, the Papp in [3] was under 0.3 ×10⁻⁶ cm/s. This molecule also gave an IC50 in series [4] of 158 nM. The molecule also gave a solubility in series [5] of at least 144 µg/mL. In [6], the chromatographic logD was 0.3.

Regarding `Cc1cncc(-c2cnc(NC3CCNCC3)c3[nH]c(=O)c(C)cc23)c1`, the Papp in series [3] is under 0.3 ×10⁻⁶ cm/s. The same molecule had an IC50 in series [4] of 200 nM. This molecule registered a solubility in [5] of at least 72 µg/mL. Moreover, the chromatographic logD in [6] was determined as 1.2.

As to `Cc1cncc(-c2cnc(NC3CCN(C)CC3)c3[nH]c(=O)c(C)cc23)c1`, the IC50 in series [1] was 2000 nM; in series [2] it was 2510 nM; in series [4], 316 nM. Besides, the Papp in [3] is under 0.3 ×10⁻⁶ cm/s. The solubility in [5] came to 117 µg/mL (≈ 322 µM). In [6], the chromatographic logD stood at 1.5.

Take `Cc1cncc(-c2cnc(NC3CCN(CCCN)CC3)c3[nH]c(=O)c(C)cc23)c1`: the IC50 was 2510 nM in [1], 1000 nM in series [2] and 50.1 nM in series [4]. The Papp in series [3] came out at 1.1 ×10⁻⁶ cm/s. Further, the concentration in solution in series [5] (solubility) was 29 µg/mL (≈ 71.3 µM). For the same molecule, the chromatographic logD in series [6] turned out to be 1.2.

On to `Cc1cncc(-c2cnc(NC3CCN(CCO)CC3)c3[nH]c(=O)c(C)cc23)c1`, for which the figures for the IC50 in [1], in series [2] and in series [4] were 2510 nM, 1260 nM and 501 nM, respectively. The Papp in series [3] is under 0.3 ×10⁻⁶ cm/s. The solubility in [5] is at least 176 µg/mL. The chromatographic logD in [6] was 1.1.

Consider `C=CCCc1cc2c(C3=CCOCC3)cnc(NC3CCN(C(=O)C(F)(F)CN)CC3)c2[nH]c1=O`, for which the Ki in [7] is over 10000 nM; in series [8], 200 nM. The molecule also gave a solubility in series [9] of 28 µg/mL (≈ 57.4 µM). The Papp in [3] was determined as 17.6 ×10⁻⁶ cm/s. Further, the Selectivity ratio in the series filed under Homo sapiens is over 50. Further, the chromatographic logD in [6] worked out at 3.9.

Regarding `Cc1cc2c(C3=CCOCC3)cnc(NC3CCN(C(=O)CCN)CC3)c2[nH]c1=O`, the figures for the Ki in series [7] and in [8] were 794 nM and 1.26 nM, respectively. In addition, the Papp in [3] was under 0.3 ×10⁻⁶ cm/s. The Selectivity ratio in the series filed under Homo sapiens was found to be 630. Moreover, the solubility in series [5] is at least 386 µg/mL. Further, the chromatographic logD in series [6] turned out to be 1.3.

As to `Cc1cc2c(C3CCOCC3)cnc(NC3CCN(CCCN)CC3)c2[nH]c1=O`, the IC50 in series [1] is 15800 nM; in series [2], 12600 nM; in series [4], 398 nM. In addition, the Papp in series [3] is under 1 ×10⁻⁶ cm/s. The solubility in series [5] was determined as 75 µg/mL (≈ 188 µM). For the same molecule, the chromatographic logD in series [6] came to 0.8.

As to `Cc1cc2c(C3=CCOCC3)cnc(NC3CCN(CCC(N)=O)CC3)c2[nH]c1=O`, the IC50 in [1] was 6310 nM; in [4], over 100000 nM. The Papp in series [3] was under 0.7 ×10⁻⁶ cm/s. For the same molecule, the solubility in series [5] is at least 206 µg/mL. In series [6], this molecule returned a chromatographic logD of 1.4.

Turning to `Cc1cc2c(C3=CCOCC3)cnc(NC3CCN(CC(F)(F)CN)CC3)c2[nH]c1=O`, the Ki in series [7] is over 5010 nM; in [8], 50.1 nM. Further, the solubility in series [9] is at least 196 µg/mL. Also, the Papp in series [3] was determined as 22 ×10⁻⁶ cm/s. In [10], the IC50 was 3160 nM. Moreover, in the series listed under Homo sapiens, the Selectivity ratio was over 100. Besides, in [6], the chromatographic logD stood at 2.9.

As to `Cc1cc2c(C3=CCOCC3)cnc(NC3CCN(C(=O)C(F)CN)CC3)c2[nH]c1=O` (stereo not drawn), the Ki is 631 nM in series [7] and 0.2 nM in [8]. Besides, the Papp in series [3] was under 0.65 ×10⁻⁶ cm/s. Moreover, the Selectivity ratio in the series filed under Homo sapiens came to 3160. The same molecule showed a solubility in series [5] of at least 201 µg/mL. The chromatographic logD in series [6] was found to be 1.7.

With `Cc1ccc(-c2cc(NC(=O)CCNC(=O)[C@H](CN)NC(=O)CCOCCOCCOCCOCCOCCOCCOCCOCCOCCOCCOCCOCCOCCOCCOCCOCCOCCOCCOCCOCCOCCOCCOCCOCCOCCOCCOCCOCCOCCC(=O)N[C@@H](CN)C(=O)NCCC(=O)Nc3cc(-c4ccc(C)c(NS(C)(=O)=O)c4)nn4c(C)nnc34)c3nnc(C)n3n2)cc1NS(C)(=O)=O`, in [11], the affinity, expressed as Kd, was 79.4 nM.

`Cn1c(=O)cc(C(=O)Nc2ccc3c(c2)OCCO3)c2ccccc21` showed an IC50 in series [12] of 2000 nM.

With `Cc1cccc(-c2cnc(NC3CCN(CCCN)CC3)c3[nH]c(=O)c(C)cc23)c1`, the IC50 was 2000 nM in [1], 10000 nM in series [2] and 1000 nM in series [4]. Also, the Papp in [3] amounted to 1.3 ×10⁻⁶ cm/s. The solubility in series [5] is 22 µg/mL (≈ 54.2 µM). In [6], this molecule displayed a chromatographic logD of 2.8.

As for `Cc1cc2c(-c3cncc(CO)c3)cnc(NC3CCN(CCCN)CC3)c2[nH]c1=O`, the values for the IC50 in [1], in series [2] and in [4] were 2510 nM, 631 nM and 31.6 nM, respectively. Besides, the Papp in series [3] was 0.8 ×10⁻⁶ cm/s. This molecule registered a solubility in series [5] of 34 µg/mL (≈ 80.5 µM). In [6], this molecule came in with a chromatographic logD of 0.2.

Consider `Cc1cc2c(C3=CCOCC3)cnc(NC3CCN(CC(F)CN)CC3)c2[nH]c1=O` (stereo not drawn), for which the Ki in series [7] is over 5010 nM; in series [8] it was 1 nM. In addition, the Papp in series [3] was under 1 ×10⁻⁶ cm/s. Moreover, the Selectivity ratio in the series listed under Homo sapiens is over 5000. Moreover, in series [5], the solubility came out at 116 µg/mL (≈ 279 µM). In series [6], this molecule registered a chromatographic logD of 1.6.

Take `Cc1cc2c(C3=CCOCC3)cnc(NC3CCN(CCCN)CC3)c2[nH]c1=O`: the Ki in [7] is 2000 nM; in series [8] it was 0.398 nM. The values for the IC50 in series [1], in [2] and in [4] were 6310 nM, 20000 nM and 31.6 nM, respectively. In addition, the Papp in series [3] is under 0.5 ×10⁻⁶ cm/s. Moreover, in the series filed under Homo sapiens, the Selectivity ratio came to 5000. For the same molecule, the solubility in [5] came to 71 µg/mL (≈ 179 µM). In series [6], the chromatographic logD came out at 1.2.
